Results on 6 compounds are retold here after patent publication US20040224943A1, “Method of lowering body temperature with (R) - 2,3-benzodiazepines” (priority 2003, published 2004).

Data set [1] relates to mice. As to conditions: cited from earlier work.
For another data set, the system named is rats. As to conditions: cited from earlier work.
Data set [2] has as its system mice. The data set is described as follows: Stress Induced Hyperthermia (SIH) assay. It is filed as in vivo. As to conditions: for lowering the core body temperature: 64 mg/kg intraperitoneally 60 minutes before T1, at both T1 and T2. The method, then:
In this assay, two successive temperature measurements are performed, the first, a basal measurement and the second, a measurement of a stress-enhanced temperature. The difference between the two measurements (delta T) is compared in animals treated with a test compound versus animals treated with vehicle alone to determine the test compound's activity in lowering body temperature. […] Besides the effect of drugs on the stress-enhanced temperature (T2), this test also directly measures intrinsic effects of drugs on the core body temperature (T1). Thus a test compound that reduces T2 and thus yields a lower delta T has utility in therapies that are directed to lowering the body temperature of an individual, such as perimenopause and menopause.
Mice, individually housed overnight, were subjected to two sequential rectal temperature measurements ten minutes apart. The first measurement is the basal temperature (T1), the second one the stress-enhanced temperature (T2). The difference (delta T) is the stress-induced hyperthermia. See, Van der Heyden et al., “Stress-induced hyperthermia in singly housed mice,” Physiology and Behavior, 463-470, (1997).
Test animals (group housed mice) were assigned to five groups of ten animals each. The test groups were dosed according to Table 2 below.
The test animals were isolated in an experimental room approximately one hour before lights off on the day before the test. On the day of testing, animals were taken quietly from the cage, held in a supine position, the rectal temperature was measured and the animal was placed back into the cage. The same procedure was repeated 10 minutes later. The first temperature (T1), the second temperature (T2) and the difference (delta T) were recorded. The test compounds were administered intraperitonealy 60 minutes before T1, in order to prevent the stress of being injected from affecting the temperature measurements.

Data set [3] relates to mice. As to conditions: reported in U.S. Pat. No. 4,322,346; cited from earlier work.
The subject of the next data set is central BZ receptors. As to conditions: cited from earlier work.
The target of a further data set is peripheral BZ receptors (Homo sapiens, UniProt P30536). As to conditions: cited from earlier work.
peripheral BZ receptors, sequence (P30536 whole entry): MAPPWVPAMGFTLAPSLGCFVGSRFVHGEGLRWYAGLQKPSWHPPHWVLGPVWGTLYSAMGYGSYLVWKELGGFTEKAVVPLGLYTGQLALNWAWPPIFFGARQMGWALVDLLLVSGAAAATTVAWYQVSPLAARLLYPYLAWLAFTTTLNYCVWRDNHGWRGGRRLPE
A further data set relates to lymphocyte. As to conditions: in vitro, cited from earlier work.

As for `CCC1C(C)=NN=C(c2ccc(O)c(OC)c2)c2cc(OC)c(O)cc21` (stereo not drawn) [Compound 5, 1-(3-methoxy-4-hydroxyphenyl)-4-methyl-5-ethyl-7-hydroxy-8-methoxy-5H-2,3-benzodiazepine], the inhibition of aggression in the data set on mice [1] is on record as 28.6%. The inhibition of muricide in the data set on rats is 20%.
Regarding `CC[C@@H]1C(C)=NN=C(c2ccc(OC)c(OC)c2)c2cc(OC)c(OC)cc21` [(S)-tofisopam, (S)-1-(3,4-dimethoxyphenyl)-4-methyl-5-ethyl-7,8-dimethoxy-5H-2,3-benzodiazepine], in the data set on mice [2], the “lowering the core body temperature” value was “more active than either the racemate or the (R)-enantiomer”.
Regarding `CCC1C(C)=NN=C(c2ccc(OC)c(OC)c2)c2cc(OC)c(O)cc21` (stereo not drawn) [Compound 1, 1-(3,4-dimethoxyphenyl)-4-methyl-5-ethyl-7-hydroxy-8-methoxy-5H-2,3-benzodiazepine], the inhibition of aggression with mice [1] is 0%. For the same compound, the inhibition of muricide with rats is listed as 20%.
Take `CCC1C(C)=NN=C(c2ccc(O)c(OC)c2)c2cc(OC)c(OC)cc21` (stereo not drawn) [Compound 3, 1-(3-methoxy-4-hydroxyphenyl)-4-methyl-5-ethyl-7,8-dimethoxy-5H-2,3-benzodiazepine]: the inhibition of aggression in the data set with mice [1] is listed as 0%. Besides, in the data set on rats, the inhibition of muricide is on record as 0%. Besides, the narcosis-potentiating activity entry with mice [3] is recorded as “narcosis-potentiating activity”.
Regarding `CCC1C(C)=NN=C(c2ccc(OC)c(OC)c2)c2cc(OC)c(OC)cc21` (racemic) [tofisopam], the “lowering the core body temperature” value with mice [2] is “demonstrates activity in lowering the core body temperature”. Besides, the “interaction with central BZ receptors” value with central BZ receptors was “does not interact”. At peripheral BZ receptors, the “binding to peripheral BZ receptors” value is on record as “binds only weakly”. Also, the IL-2 production result in the data set on lymphocyte (mitogen-induced) was “enhances”. For the same compound, the mitogen-induced lymphocyte proliferation entry in the data set with lymphocyte was “enhances”.
With `CC[C@H]1C(C)=NN=C(c2ccc(OC)c(OC)c2)c2cc(OC)c(OC)cc21` [(R)-tofisopam, (R)-1-(3,4-dimethoxyphenyl)-4-methyl-5-ethyl-7,8-dimethoxy-5H-2,3-benzodiazepine], the “lowering the core body temperature” value in the data set with mice [2] is “demonstrated therapeutic activity”. Moreover, the “sedation, abnormal gait, ptosis, muscle tone, lacrimation, reactivity to touch” value in the data set with mice [2] (64 mg/kg intraperitoneally, compared with (S)-enantiomer or racemate) is given as “less sedation, abnormal gait, or ptosis, decreased muscle tone, decreased lacrimation, or decreased reactivity to touch”.
